What was measured:
Assay type in all cases: in vivo
Settings in all cases: 250 g/ha, evaluated after 13 days
[1] = tested on: Amaranthus palmeri (AMAPA); assay: Post-emergence herbicide glasshouse test
Method in brief: (§1)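 Spray: acetone/water 50:50 + 0.5% Tween 20, 250 g/ha unless stated; 1 d (pre) or 8 d (post) after sowing. Glasshouse 24/16° C, 14 h light, 65% RH, watered twice daily. Read-out at 13 d: % damage binned 1–5 (5=81-100%, 1=0-20%).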

[2] = tested on: Amaranthus retoflexus (AMARE); assay: Post-emergence herbicide glasshouse test
Method in brief: as §1

[3] = tested on: Echinochloa crus-galli (ECHCG); assay: Post-emergence herbicide glasshouse test
Method in brief: as §1

[4] = tested on: Ipomoea hederacea (IPOHE); assay: Post-emergence herbicide glasshouse test
Method in brief: as §1

[5] = tested on: Amaranthus palmeri (AMAPA); assay: Pre-emergence herbicide glasshouse test
Method in brief: as §1

[6] = tested on: Amaranthus retoflexus (AMARE); assay: Pre-emergence herbicide glasshouse test
Method in brief: as §1

[7] = tested on: Echinochloa crus-galli (ECHCG); assay: Pre-emergence herbicide glasshouse test
Method in brief: as §1

[8] = tested on: Ipomoea hederacea (IPOHE); assay: Pre-emergence herbicide glasshouse test
Method in brief: as §1

| SMILES | percentage damage caused to the plant, AMAPA (five-point scale) [1] | percentage damage caused to the plant, AMARE (five-point scale) [2] | percentage damage caused to the plant, ECHCG (five-point scale) [3] | percentage damage caused to the plant, IPOHE (five-point scale) [4] | percentage damage caused to the plant, AMAPA (five-point scale) [5] | percentage damage caused to the plant, AMARE (five-point scale) [6] | percentage damage caused to the plant, ECHCG (five-point scale) [7] | percentage damage caused to the plant, IPOHE (five-point scale) [8] |
| --- | --- | --- | --- | --- | --- | --- | --- | --- |
| Cc1cnc(Cn2cc(C(F)(F)F)nc2-c2ccc(Cl)nc2)o1 [Compound 1.094] | 5 (5=81-100%) | 5 (5=81-100%) | 4 (4=61-80%) | 3 (3=41-60%) | 5 (5=81-100%) | 5 (5=81-100%) | 5 (5=81-100%) | 4 (4=61-80%) |
| Cc1coc(Cn2cc(C(F)(F)F)nc2-c2ccc(Cl)nc2)n1 [Compound 1.096] | 5 (5=81-100%) | 5 (5=81-100%) | 4 (4=61-80%) | 3 (3=41-60%) | 5 (5=81-100%) | 5 (5=81-100%) | 5 (5=81-100%) | 5 (5=81-100%) |
| Cc1nc(Cn2cc(C(F)(F)F)nc2-c2ccc(Cl)nc2)no1 [Compound 1.097] | 5 (5=81-100%) | 5 (5=81-100%) | 5 (5=81-100%) | 5 (5=81-100%) | 5 (5=81-100%) | 5 (5=81-100%) | 5 (5=81-100%) | 5 (5=81-100%) |
| CCc1noc(Cn2cc(C(F)(F)F)nc2-c2ccc(Cl)nc2)n1 [Compound 1.098] | 4 (4=61-80%) | 4 (4=61-80%) | 1 (1=0-20%) | 3 (3=41-60%) | 5 (5=81-100%) | 5 (5=81-100%) | 1 (1=0-20%) | 4 (4=61-80%) |
| CCn1cc(Cl)c(Cn2cc(C(F)(F)F)nc2-c2ccc(Cl)nc2)n1 [Compound 1.100] | 1 (1=0-20%) | 1 (1=0-20%) | 1 (1=0-20%) | 1 (1=0-20%) | 1 (1=0-20%) | 1 (1=0-20%) | 1 (1=0-20%) | 1 (1=0-20%) |
| Cc1noc(Cn2cc(C(F)(F)F)nc2-c2ccc(Cl)nc2)n1 [Compound 1.101] | 4 (4=61-80%) | 4 (4=61-80%) | 1 (1=0-20%) | 5 (5=81-100%) | 5 (5=81-100%) | 5 (5=81-100%) | 1 (1=0-20%) | 5 (5=81-100%) |
| Cn1nnc(Cn2cc(C(F)(F)F)nc2-c2ccc(Cl)nc2)n1 [Compound 1.109] | 5 (5=81-100%) | 5 (5=81-100%) | 1 (1=0-20%) | 5 (5=81-100%) | 5 (5=81-100%) | 5 (5=81-100%) | 5 (5=81-100%) | 5 (5=81-100%) |
| CCn1cc(Cn2cc(C(F)(F)F)nc2-c2ccc(Cl)nc2)nn1 [Compound 1.110] | 4 (4=61-80%) | 4 (4=61-80%) | 1 (1=0-20%) | 4 (4=61-80%) | 5 (5=81-100%) | 5 (5=81-100%) | 3 (3=41-60%) | 5 (5=81-100%) |
| FC(F)(F)c1cn(Cc2ccns2)c(-c2ccc(Cl)nc2)n1 [Compound 1.113] | 1 (1=0-20%) | 1 (1=0-20%) | 1 (1=0-20%) | 1 (1=0-20%) | 1 (1=0-20%) | 1 (1=0-20%) | 1 (1=0-20%) | 1 (1=0-20%) |
| FC(F)(F)c1cn(Cc2ccc(Cl)s2)c(-c2ccc(Cl)nc2)n1 [Compound 1.117] | 5 (5=81-100%) | 5 (5=81-100%) | 1 (1=0-20%) | 2 (2=21-40%) | 5 (5=81-100%) | 5 (5=81-100%) | 1 (1=0-20%) | 1 (1=0-20%) |
| FC(F)(F)c1cn(Cc2ncco2)c(-c2ccc(Cl)nc2)n1 [Compound 1.118] | 3 (3=41-60%) | 3 (3=41-60%) | 1 (1=0-20%) | 3 (3=41-60%) | 5 (5=81-100%) | 5 (5=81-100%) | 1 (1=0-20%) | 5 (5=81-100%) |
| FC(F)(F)c1cn(Cc2noc(C3CC3)n2)c(-c2ccc(Cl)nc2)n1 [Compound 1.125] | 4 (4=61-80%) | 5 (5=81-100%) | 4 (4=61-80%) | 5 (5=81-100%) | 5 (5=81-100%) | 5 (5=81-100%) | 5 (5=81-100%) | 5 (5=81-100%) |
| CC(C)c1nc(Cn2cc(C(F)(F)F)nc2-c2ccc(Cl)nc2)no1 [Compound 1.126] | 1 (1=0-20%) | 1 (1=0-20%) | 1 (1=0-20%) | 1 (1=0-20%) | 1 (1=0-20%) | 1 (1=0-20%) | 1 (1=0-20%) | 1 (1=0-20%) |
| CC(C)c1nnc(Cn2cc(C(F)(F)F)nc2-c2ccc(Cl)nc2)o1 [Compound 1.131] | 1 (1=0-20%) | 1 (1=0-20%) | 1 (1=0-20%) | 1 (1=0-20%) | 1 (1=0-20%) | 5 (5=81-100%) | 1 (1=0-20%) | 1 (1=0-20%) |

Source: patent publication US20260125360A1, “HERBICIDAL IMIDAZOLE COMPOUNDS” (SYNGENTA CROP PROTECTION AG, priority 2022, published 2026)
